Where “and” joins values, the source holds several entries; their conditions need not be identical. Equal values may be shown once. Marks after values point to notes of the source that are not given here.
Tests used:
[1] = tested on: local lymph node reaction; assay: Local lymph node weight and cell count after TDI challenge; details: topical, diflorasone 0.1% and 0.5%, 1a 2% or 6%
Description: Directly after sacrifice, the ear draining lymph node (Ln. auricularis) was prepared and excised. Organ weight was determined by means of an analytical balance (Kern, Balingen, Germany). Single cell suspensions were prepared by means of a glass potter (VWR, Darmstadt, Germany) and cells were counted with a hemocytometer (Neubauer, VWR, Germany).
One of the most undesirable side-effects of corticosteroid administration is immunosuppression, which leads to the inability to effectively address parasitic infection, wound healing and tumor growth. In the current study, the local lymph node reaction after TDI challenge (lymph node weight and cell number) was determined to assess the response of immune organs.

[2] = tested on: RBL-2H3 cells; assay: Maximum tolerated concentration (cytotoxicity by lactate dehydrogenase release); assay type: cell-based, rat
From the text: The safety index (SI) of a test compound is the ratio between the maximum tolerated concentration and the IC50 and is used as a measure of the relative safety of the test compound.

[3] = tested on: allergic contact dermatitis response in mice; assay: Allergic contact dermatitis (TDI) model in mice, mouse ear swelling test; assay type: in vivo
Description: The anti-inflammatory and anti-allergic effects of compound 1a were assessed in a mouse model of allergic contact dermatitis, a response driven primarily by T helper type 2 (Th2) cells. […] In this model, an allergic dermatitis response is obtained by sensitizing mice to TDI and subsequently challenging them with antigen by topical administration onto the ears. A quantitative assessment of anti-inflammatory and anti-allergic effects of topically or orally administered test compounds is possible by measuring the resulting ear swelling.
Female BALB/c-mice were obtained from Charles River (Sulzfeld, Germany) at age 8 weeks. All animals were housed in groups of eight per cage at 22° C. with a 12 h light/dark-cycle. Water and a standard diet (Altromin, Lage/Lippe, Germany) were available ad libitum. All animals were acclimatized for one week before experimental procedures were commenced.
Experimental procedures for BALB/c mice housing, TDI sensitization and challenge, and measurement of ear thickness were performed as previously described (Baumer et al., J Pharm Pharmacol. 55:1107-1114 (2003)) with the following modifications. For active sensitization, 100 μL of 5% (w/v) TDI was administered to the shaved and stripped abdominal epidermis on day one, and for the next three consecutive days, 50 μL of 5% (w/v) TDI was applied. The allergic reaction was boosted 21 days later by application of 50 μL of 0.5% (w/v) TDI. For the examination of test compound effects, the left ears were used for the TDI challenge (20 μL of 0.5% in acetone) and ear thickness measured 3 h before and 24 h after challenge.
Administration time: to determine optimal time for administration treatment groups were treated orally by gavage with 100 mg/kg of compound 1a (suspended in 0.5% tylose, 10 mL/kg) 1, 4 or 16 h before topical TDI challenge. One group was treated with 100 mg/kg miltefosine orally, 16 h before challenge (based on available data for optimal administration time for miltefosine) and vehicle treated mice received tylose (10 mL/kg) orally, 4 h before challenge.
Comparison with dexamethasone: one group of mice was treated orally with compound 1a at 100 mg/kg suspended in 0.5% tylose, 4 h before topical TDI challenge. Vehicle treated mice received 0.5% tylose orally 4 h before challenge. As a positive control, dexamethasone was administered in saline solution at 1 mg/kg or 3 mg/kg, 2 h and 30 min before challenge and 1 h after challenge. The dose and dosing scheme for dexamethasone was based on previous experience showing a maximal effect in this model.
[…] The solution was applied, 2 h before topical TDI challenge by administration of 10 μl onto each of the inner and outer surfaces of the left ears. A vehicle group (n=5) was treated with propyleneglycol. As a positive control, diflorasone diacetate was administered at 0.01% (low dose) and 0.05% (high dose) in 20 μl acetone, 2 h before challenge. A basal control group was left untreated.
Mean and standard error of the mean (SEM) were calculated from individual ear edema values. Statistical evaluation was a one-way analysis of variance (ANOVA) (if the test for normal distribution was passed) or the Kruskal-Wallis one-way ANOVA on Ranks (if the normal distribution test failed). Both were followed by a post-hoc test (Dunnett's method or Dunn's test, respectively). A p<0.05 was considered to be significant.

CCCCCCCCCCCCCC[N+](C)(C)CC(=O)N(C)C[C@H](O)[C@@H](O)[C@H](O)[C@H](O)CO [Compound 1a, N-(2-(Dimethyl(tetradecyl)ammonio)acetyl)-N-methyl-D-glucamine chloride]
local lymph node reaction (lymph node weight and cell number) [1]: only a modest effect | MTC (maximum tolerated concentration) ([2]; highest concentration not causing cytotoxicity (LDH release)): 150 µM | SI (safety index) ([2]; ratio between MTC and IC50): 39.5 | toxicity ([3]; 100 mg/kg oral): no toxicity | inhibition relative to the highest dose of dexamethasone ([3]; 100 mg/kg oral vs dexamethasone 3 mg/kg): 37% | Inhibition of mouse ear swelling ([3]; administration time study, 100 mg/kg oral, 1 h before TDI challenge): 43.5* % | Inhibition of mouse ear swelling ([3]; administration time study, 100 mg/kg oral, 4 h before TDI challenge): 63% and 62.9*** % | Inhibition of mouse ear swelling ([3]; administration time study, 100 mg/kg oral, 16 h before TDI challenge): 43.5^§ % | Inhibition of mouse ear swelling ([3]; comparison with dexamethasone, 100 mg/kg oral, 4 h before challenge): 32% | Inhibition of mouse ear swelling ([3]; topical, 2% solution in propyleneglycol, 2 h before challenge): 68% and 67.7*** % | Inhibition of mouse ear swelling ([3]; topical, 6% solution in propyleneglycol, 2 h before challenge): 83% and 82.2*** %
